Earlier results in patent publication US20050277132A1, “Nematode GS-like sequences” (Divergence Inc., a Delaware corporation, priority 2001, published 2005).

Assays:
[1] = system: bacterial glutamine synthetase enzymes; conditions: in vitro and in cell culture
[2] = system: nonpathogenic bacteria that do not export glutamine synthetase
[3] = system: pathogenic bacteria that are known to secrete glutamine synthetase; conditions: bacteria that secrete glutamine synthetase into the extracellular milieu
[4] = system: everted hamster jejunal and ileal segments
[5] = system: isolated intestinal epithelial cells

Structure (SMILES) | times more active against certain bacterial glutamine synthetase enzymes than representative mammalian glutamine synthetases [1] | effect against nonpathogenic bacteria [2] | growth of pathogenic bacteria [3] | effect on water and electrolyte absorption [4] | cytotoxicity [5]
CS(=N)(=O)CC[C@H](N)C(=O)O (stereo partly drawn) [L-methionine-S-sulfoximine] | 100 times | no effect | selectively block growth | – | –
CCCCCC[C@@H](O)C/C=C\CCCCCCCC(=O)O [Ricinoleic acid] | – | – | – | inhibitory effect | cytotoxic
CCCCCC[C@@H](O)C/C=C\CCCCCCCC(=O)OC [methyl ester of ricinoleic acid] | – | – | – | ineffective | –
